Where two headings read alike, the source gives them in different places.
Tests used:
[1] = system: T47D cells expressing mutant PI3Ka (H1047R); experiment: In vitro cell proliferation, T47D cells (CellTiter-Glo); format: cell-based; settings: inhibition of proliferation, read-out: Avg T-47D EC50
Method in brief: (§1)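 1,500 cells/well seeded onto pre-stamped 10-pt dilution plates; T47D in RPMI + 10% FBS + insulin 0.2 units/mL, SKBR3 in McCoys 5a + 10% FBS. 72 h, 37 °C, 5% CO2. CTG readout. 0% = 0.1% DMSO, 100% = 10 uM Alpelisib; sigmoidal fit gives EC50.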

[2] = system: SKBR3 cells express WT PI3Ka; experiment: In vitro cell proliferation, SKBR3 cells (CellTiter-Glo); format: cell-based; settings: inhibition of proliferation
Method in brief: as §1

[3] = system: phosphorylation of AKT (pAKT) in T47D cells expressing mutant PI3Ka (H1047R); experiment: In vitro cell pAKT (Ser473) HTRF, T47D cells; format: cell-based
Method in brief: (§2)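 pAKT (Ser473) was quantified by HTRF in lysates from cells exposed 6 h at 37 °C to 10-point compound series, with T47D in insulin-supplemented RPMI/10% FBS and SKBR3 in McCoy's 5a/10% FBS. Controls: 0.1% DMSO (high) and 10 uM alpelisib (low). IC50 from sigmoidal curve fitting.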

[4] = system: phosphorylation of AKT (pAKT) in SKBR3 cells express WT PI3Ka; experiment: In vitro cell pAKT (Ser473) HTRF, SKBR3 cells; format: cell-based
Method in brief: as §2

[5] = Mouse pharmacokinetics, single IV or PO dose, plasma LC/MS/MS; format: in vivo; settings: CD1 mice; for PK-Mouse: PO F: PO 10 mg/kg vs IV 1 mg/kg; for AUC(0-t) / clearance: mouse, plasma; for clearance: read-out: PK-Mouse: IV Cl
Method: CD1 mice were dosed with a single IV or PO dose, followed by serial sampling of plasma at 0.0833 (IV only), 0.25, 0.5, 1, 2, 4, 8, 24 hours post dose. Desired serial concentrations of working solutions were achieved by diluting stock solution of analyte with 50% acetonitrile in water solution.10 μL of working solutions […] were added to 10 μL of the blank Female CD1 Mouse plasma to achieve calibration standards of 0.5˜1000 ng/ml (0.5, 1, 2, 5, 10, 50, 100, 500, 1000 ng/ml) in a total volume of 20 μL. Five quality control samples at 1 ng/ml, 2 ng/ml, 5 ng/ml, 50 ng/ml and 800 ng/ml for plasma were prepared independently of those used for the calibration curves. These QC samples were prepared on the day of analysis in the same way as calibration standards. 20 μL standards, 20 μL QC samples and 20 μL unknown samples (10 μL plasma with 10 μL blank solution) were added to 200 μL of acetonitrile containing IS mixture for precipitating protein respectively. Then the samples were vortexed for 30 s. after centrifugation at 4° Celsius, 4000 rpm for 15 min. The supernatant was diluted with water at a ratio of 1:2 (V/V, 1:2), Then 5 μL of diluted supernatant was injected into the LC/MS/MS system for quantitative analysis.

[6] = cellular pAKT, T47D cells, mutant PI3Ka (H1047R), 6 hours; read-out: Avg T-47D IC50
[7] = IV 1 mg/kg, 20% PEG400/20% PG/60% of 20% HPβCD solution in water, read-out: PK-Mouse: IV AUC last
[8] = IV 1 mg/kg, 20% PEG400/20% PG/60% of 20% HPβCD solution in water
[9] = PO 10 mg/kg, 30% SBEβCD in water, read-out: PK-Mouse PO AUC last
[10] = Homo sapiens, T47D, 6 h, cellular pAKT, T47D cells, mutant PI3Ka (H1047R), 6 hours; read-out: Avg T-47D IC50
[11] = Homo sapiens, SK-BR-3, 6 h, cellular pAKT

Compound | EC50 ([1]; 72 hours) | EC50 ([2]; 72 hours) | IC50 [3, 6] | EC50 ([1]; Homo sapiens, T47D, 72 h) | EC50 ([2]; Homo sapiens, SK-BR-3, 72 h) | IC50 [3, 10] | IC50 [4, 11] | further results
Cc1cc(C(C)Nc2ccc(Cl)nc2C(=O)O)c2cc(C3=CCC(C)(C)CC3)n(C)c(=O)c2c1 (single isomer, unassigned) [Example 23, 6-chloro-3-((1-(3-(4,4-dimethylcyclohex-1-en-1-yl)-2,7-dimethyl-1-oxo-1,2-dihydroisoquinolin-5-yl)ethyl)amino)picolinic acid] | 1 to 500 nM | 2000 to 15000 nM | 500 to 2000 nM |  |  |  |  | IC50 ([4]; cellular pAKT, 6 hours): > 15000 nM; PK-Mouse: PO F [5]: 106%; AUC(0-t) [5, 7]: 683 ng·h/mL; clearance [5, 8]: 24.6 mL/min/kg; AUC(0-t) [5, 9]: 7230 ng·h/mL
Cc1cc(C(C)Nc2ccccc2C(=O)O)c2cc(N3CCN(CC(F)(F)F)CC3)n(C)c(=O)c2c1 (single isomer, unassigned) [Example 8, 2-((1-(2,7-dimethyl-1-oxo-3-(4-(2,2,2-trifluoroethyl)piperazin-1-yl)-1,2-dihydroisoquinolin-5-yl)ethyl)amino)benzoic acid] | 1 to 500 nM | 2000 to 15000 nM | 1 to 500 nM |  |  |  |  | IC50 ([4]; cellular pAKT, 6 hours): 2000 to 15000 nM; PK-Mouse: PO F [5]: 62%; AUC(0-t) [5, 7]: 1440 ng·h/mL; clearance [5, 8]: 11.7 mL/min/kg; AUC(0-t) [5, 9]: 8900 ng·h/mL
Cc1cc(C(C)Nc2ccccc2C(=O)O)c2cc(N3CCC(C)(C)CC3)n(C)c(=O)c2c1 (single isomer, unassigned) [Example 1, 2-((1-(3-(4,4-dimethylpiperidin-1-yl)-2,7-dimethyl-1-oxo-1,2-dihydroisoquinolin-5-yl)ethyl)amino)benzoic acid] | 1 to 500 nM | 2000 to 15000 nM |  |  |  |  |  | IC50 ([3]; read-out: Avg T-47D IC50; cellular pAKT, T47D cells, mutant PI3Ka (H1047R), 6 hours): 1 to 500 nM; IC50 ([4]; Homo sapiens, SK-BR-3, cellular pAKT, 6 hours): > 15000 nM; PK-Mouse: PO F [5]: 50%; AUC(0-t) [5, 7]: 3060 ng·h/mL; clearance [5, 8]: 5.7 mL/min/kg; AUC(0-t) [5, 9]: 15200 ng·h/mL
Cc1cc([C@@H](C)Nc2ccccc2C(=O)O)c2cc(OCC(F)(F)F)n(C)c(=O)c2c1 [Example 332] |  |  |  | 500 to 2000 nM | > 15000 nM | 1 to 500 nM | > 15000 nM | 
Cc1cc(C(C)Nc2ccccc2C(=O)O)c2cc(N3CC4(C3)CC(F)(F)C4)n(C)c(=O)c2c1 (single isomer, unassigned) [Example 81] | 500 to 2000 nM | > 15000 nM | 1 to 500 nM |  |  |  |  | IC50 ([4]; cellular pAKT, 6 hours): > 15000 nM
Cc1cc([C@@H](C)Nc2cccc(F)c2C(=O)O)c2cc(-c3cnc(C(F)(F)F)nc3)n(C)c(=O)c2c1 [Example 371] | 500 to 2000 nM | > 15000 nM | 500 to 2000 nM |  |  |  |  | IC50 ([4]; cellular pAKT, 6 hours): > 15000 nM
Cc1cc([C@@H](C)Nc2ccccc2C(=O)O)c2cc(-c3cnc4c(c3)CCC4(F)F)n(C)c(=O)c2c1 [Example 240] |  |  |  | 1 to 500 nM | > 15000 nM | 1 to 500 nM | > 15000 nM | 
Cc1cc([C@@H](C)Nc2ccccc2C(=O)O)c2cc(N3CCN(c4cncnc4C)CC3)n(C)c(=O)c2c1 [Example 236] |  |  |  | 1 to 500 nM | 2000 to 15000 nM | 1 to 500 nM | 2000 to 15000 nM | 
Cc1cc(C(C)Nc2ccc(Cl)nc2C(=O)O)c2cc(N3Cc4ccc(F)cc4C3)n(C)c(=O)c2c1 (centres unmarked) [Example 71] |  |  |  | 500 to 2000 nM | > 15000 nM | 1 to 500 nM | 2000 to 15000 nM | 
C[C@@H](Nc1cccc(F)c1C(=O)O)c1cc(F)cc2c(=O)n(C)c(N3CCN(c4nccs4)CC3)cc12 [Example 429] |  |  |  | 1 to 500 nM | > 15000 nM | 1 to 500 nM | > 15000 nM | 
Cc1cc([C@@H](C)Nc2ccccc2C(=O)O)c2cc(C3C[C@H]3C(C)C)n(C)c(=O)c2c1 (single isomer, unassigned) [Example 311] |  | > 15000 nM |  | 1 to 500 nM |  | 1 to 500 nM | > 15000 nM | 
Cc1cc([C@@H](C)Nc2ccccc2C(=O)O)c2cc(N3CC(F)(c4cccnc4)C3)n(C)c(=O)c2c1 [Example 192] |  |  |  | 1 to 500 nM | > 15000 nM | 1 to 500 nM | > 15000 nM | 
Cc1cc([C@@H](C)Nc2ccccc2C(=O)O)c2cc(C3C[C@H]3C3CC3)n(C)c(=O)c2c1 (some centres unmarked) [Example 303] |  |  |  | 1 to 500 nM | > 15000 nM | 1 to 500 nM | > 15000 nM | 
CCOc1ncc(-c2cc3c([C@@H](C)Nc4cccc(F)c4C(=O)O)cc(F)cc3c(=O)n2C)s1 [Example 363] |  |  |  | 1 to 500 nM | > 15000 nM | 1 to 500 nM | > 15000 nM | 
Cc1cc(C(C)Nc2ccc(Cl)nc2C(=O)O)c2cc(C3=CCC(C)(C)CC3)n(C)c(=O)c2c1 (single isomer, unassigned) [Example 22, 6-chloro-3-((1-(3-(4,4-dimethylcyclohex-1-en-1-yl)-2,7-dimethyl-1-oxo-1,2-dihydroisoquinolin-5-yl)ethyl)amino)picolinic acid] | 2000 to 15000 nM |  | 2000 to 15000 nM |  | 2000 to 15000 nM |  | > 15000 nM | 
Cc1cc(C(C)Nc2ccccc2C(=O)O)c2cc(N3CCN(C(=O)OC(C)C)CC3)n(C)c(=O)c2c1 (single isomer, unassigned) [Example 149] | 1 to 500 nM | 2000 to 15000 nM | 1 to 500 nM |  |  |  |  | IC50 ([4]; cellular pAKT, 6 hours): 2000 to 15000 nM
C[C@@H](Nc1ccccc1C(=O)O)c1cc(F)cc2c(=O)n(C)c(-c3cnc(-c4cnc(C(F)(F)F)nc4)c(F)c3)cc12 [Example 574] |  |  |  | 1 to 500 nM | 2000 to 15000 nM | 1 to 500 nM | > 15000 nM | 
Cc1cc([C@@H](C)Nc2ccccc2C(=O)O)c2cc(N3CCn4nncc4C3)n(C)c(=O)c2c1 [Example 436] |  |  |  | 2000 to 15000 nM | > 15000 nM | 2000 to 15000 nM | > 15000 nM | 
C[C@@H](Nc1ccccc1C(=O)O)c1cc(F)cc2c(=O)n(C)c(C34CC(c5cnn(C(F)F)c5)(C3)C4)c(F)c12 [Example 580] |  |  |  | 1 to 500 nM | 2000 to 15000 nM | 1 to 500 nM | 2000 to 15000 nM | 
Cc1cc([C@@H](C)Nc2ccccc2C(=O)O)c2cc([C@H]3C[C@@H]3C(C)(C)O)n(C)c(=O)c2c1 (single isomer, unassigned) [Example 373] |  |  |  | 1 to 500 nM | > 15000 nM | 1 to 500 nM | > 15000 nM | 
